According to paper PMC6301713, “Zincophorin – biosynthesis in Streptomyces griseus and antibiotic properties” (GMS Infectious Diseases, 2016):
≈ marks a conversion by molar mass, not a printed value. Where two headings read alike, the source gives them in different places.

Columns and labels:
[1] = Cytotoxicity assay, crystal violet staining; format: cell-based, canine; conditions: dog
Procedure: (§1) The cytotoxicity of zincophorin, methyl zincophorin, daptomycin (Chemos GmbH, Regenstauf, Germany), and imipenem (Sigma-Aldrich GmbH, Taufkirchen, Germany) was evaluated as described recently, [20]. Briefly, serial twofold compounds concentration were prepared in Eagle’s minimum essential medium supplemented with 2 mM L-glutamine or Dulbecco’s Modified Eagle Medium (Lonza Group Ltd., Basel, Switzerland) and added to three-day-old confluent human lung carcinoma cells (A549; Institute of Molecular Virology, University of Münster, Germany) and Madin-Darby canine kidney cell (MDCK; Friedrich-Loeffler Institute, Riems, Germany) monolayers grown in 96-well plates (Greiner bio-one GmbH, Frickenhausen, Germany), respectively. […] After dye elution and optical density measurement the 50% cytotoxic concentration (CC50) was calculated.

Streptococcus pneumoniae = assay: Antimicrobial assays, all tested S. pneumoniae strains; conditions: pneumococci; maximum tested concentration 50 µM; data not shown
[2] = Cytotoxicity assay, crystal violet staining; format: cell-based, human; conditions: human
Procedure: as §1

S. pneumoniae DSM14378 [3] = assay: microbe, parasite or virus in culture; conditions: Streptococcus pneumoniae, DSM14378, 18 h, read-out: MIC (DSM14378)
[4] = test system: S. pneumoniae clinical isolate 8919
[5] = test system: S. pneumoniae clinical isolate 9400
[6] = test system: Madin-Darby canine kidney cell (MDCK); assay: Cytotoxicity assay, crystal violet staining; format: cell-based; conditions: MDCK cells
Procedure: as §1

[7] = test system: S. pneumoniae clinical isolate 6937
[8] = test system: Clostridium welchii (Clostridium perfringens); conditions: cited from earlier work
[9] = test system: S. pneumoniae clinical isolate 8919; assay: microbe, parasite or virus in culture; conditions: Streptococcus pneumoniae, 18 h, read-out: MIC (8919)
[10] = test system: S. pneumoniae clinical isolate 8828; assay: microbe, parasite or virus in culture; conditions: Streptococcus pneumoniae, 18 h, read-out: MIC (8828)
S. pneumoniae DSM20566 [11] = test system: S. pneumoniae DSM20566
S. pneumoniae D39 [12] = test system: S. pneumoniae D39
S. pneumoniae DSM14378 [13] = test system: S. pneumoniae DSM14378
[14] = test system: S. pneumoniae clinical isolate 9400; assay: microbe, parasite or virus in culture; conditions: Streptococcus pneumoniae, 18 h, read-out: MIC (9400)
S. pneumoniae D39 [15] = assay: microbe, parasite or virus in culture; conditions: Streptococcus pneumoniae, D39, 18 h, read-out: MIC (D39)
[16] = test system: human lung carcinoma cells (A549); assay: Cytotoxicity assay, crystal violet staining; format: cell-based; conditions: A549 cells
Procedure: as §1

[17] = test system: S. pneumoniae clinical isolate 6937; assay: microbe, parasite or virus in culture; conditions: Streptococcus pneumoniae, 18 h, read-out: MIC (6937)
S. pneumoniae DSM20566 [18] = assay: microbe, parasite or virus in culture; conditions: Streptococcus pneumoniae, DSM20566, 18 h, read-out: MIC (DSM20566)
[19] = test system: S. pneumoniae clinical isolate 8828
[20] = test system: S. pneumoniae clinical isolate 8828; conditions: clinical isolate 8828, 18 h
S. pneumoniae DSM20566 [21] = conditions: DSM20566, 18 h
S. pneumoniae DSM14378 [22] = conditions: DSM14378, 18 h
[23] = test system: S. pneumoniae clinical isolate 6937; conditions: clinical isolate 6937, 18 h
S. pneumoniae D39 [24] = conditions: D39, 18 h
[25] = test system: S. pneumoniae clinical isolate 8919; conditions: clinical isolate 8919, 18 h
[26] = test system: S. pneumoniae clinical isolate 9400; conditions: clinical isolate 9400, 18 h
[27] = MDCK cells (confluent monolayers), MDCK cells, 72 h, maximum tested 100 µM, mean with standard deviation, read-out: 50% cytotoxic concentration (CC50), MDCK
[28] = A549 lung carcinoma cells (confluent monolayers), A549 cells, 72 h, maximum tested 100 µM, mean with standard deviation, read-out: 50% cytotoxic concentration (CC50), A549
[29] = clinical isolate 9400, biofilm formation inhibited ≥90%, 24 h, TSB, mean with standard deviation
[30] = clinical isolate 6937, biofilm formation inhibited ≥90%, 24 h, TSB, mean with standard deviation
[31] = reference strain DSM20566, biofilm formation inhibited ≥90%, 24 h, TSB, mean with standard deviation
[32] = reference strain D39, biofilm formation inhibited ≥90%, 24 h, TSB, mean with standard deviation
[33] = reference strain DSM14378, biofilm formation inhibited ≥90%, 24 h, TSB, mean with standard deviation

| Structure (SMILES) | CC50 at 72 h [1, 27] [µM] | CC50 at 72 h [2, 28] [µM] | MIC (S. pneumoniae DSM14378 [3]) [µM] | MBIC (9400) [5, 29] [µM] | MBIC (6937) [7, 30] [µM] | MIC [9] [µM] | MIC [10] [µM] | MBIC (DSM20566) (S. pneumoniae DSM20566 [11]; [31]) [µM] | MBIC (D39) (S. pneumoniae D39 [12]; [32]) [µM] | MBIC (DSM14378) (S. pneumoniae DSM14378 [13]; [33]) [µM] | MIC [14] [µM] | MIC (S. pneumoniae D39 [15]) [µM] | MIC [17] [µM] | MIC (S. pneumoniae DSM20566 [18]) [µM] | other results |
| --- | --- | --- | --- | --- | --- | --- | --- | --- | --- | --- | --- | --- | --- | --- | --- |
| CCC[C@@H](C)/C=C(\C)[C@H](O)[C@H](C)/C=C/CC[C@@H](O)[C@H](C)[C@H](O)[C@H](C)[C@H](O)[C@H](C)[C@H]1O[C@H]([C@H](C)C(=O)OC)CC[C@@H]1C [zincophorin methyl ester] | > 100 | > 100 | – | – | – | – | – | – | – | – | – | – | – | – | antibacterial effect (highest concentration without effect) (Streptococcus pneumoniae): > 50 µM |
| CCCC(C)C=C(C)C(O)C(C)C=CCCC(O)C(C)C(O)C(C)C(O)C(C)C1OC(C(C)C(=O)O)CCC1C (stereo not drawn) [zincophorin] | 0.63 ± 0.27 | 1.02 ± 0.63 | 0.1 ± 0.05 (≈ 0.0569 µg/mL) | 0.36 ± 0.01 | 0.46 ± 0.25 | 0.09 ± 0.01 (≈ 0.0512 µg/mL) | 0.22 ± 0.04 (≈ 0.125 µg/mL) | 0.17 ± 0.03 | 0.40 ± 0.24 | 0.13 ± 0.06 | 0.14 ± 0.07 (≈ 0.0796 µg/mL) | 0.21 ± 0.11 (≈ 0.119 µg/mL) | 0.18 (≈ 0.102 µg/mL) | 0.18 ± 0.02 (≈ 0.102 µg/mL) | MBIC (8919) ([4]; clinical isolate 8919, biofilm formation inhibited ≥90%, 24 h, TSB, mean with standard deviation): 0.15 ± 0.01 µM; cytotoxic effects in words, MDCK [6]: strong cytotoxic effects; activity against Clostridium welchii [8]: particularly active; cytotoxic effects in words, A549 [16]: strong cytotoxic effects; MBIC (8828) ([19]; clinical isolate 8828, biofilm formation inhibited ≥90%, 24 h, TSB, mean with standard deviation): 0.28 ± 0.06 µM |
| C[C@@H](O)[C@H]1C(=O)N2C(C(=O)O)=C(SCCN=CN)C[C@H]12 [imipenem] | – | > 100 | 0.02 ± 0.01 (≈ 0.00599 µg/mL) | 0.36 ± 0.02 | 0.22 ± 0.14 | 0.49 ± 0.17 (≈ 0.147 µg/mL) | 0.02 (≈ 0.00599 µg/mL) | 0.06 ± 0.03 | 0.07 ± 0.03 | 0.19 ± 0.01 | 0.01 ± 0.01 (≈ 0.00299 µg/mL) | 0.02 (≈ 0.00599 µg/mL) | 0.01 (≈ 0.00299 µg/mL) | 0.03 ± 0.01 (≈ 0.00898 µg/mL) | – |
| CCCCCCCCCC(=O)N[C@@H](Cc1c[nH]c2ccccc12)C(=O)N[C@H](CC(N)=O)C(=O)N[C@@H](CC(=O)O)C(=O)N[C@@H]1C(=O)NCC(=O)N[C@@H](CCCN)C(=O)N[C@@H](CC(=O)O)C(=O)N[C@H](C)C(=O)N[C@@H](CC(=O)O)C(=O)NCC(=O)N[C@H](CO)C(=O)N[C@@H]([C@H](C)CC(=O)O)C(=O)N[C@@H](CC(=O)c2ccccc2N)C(=O)O[C@@H]1C [daptomycin] | – | – | – | – | – | – | – | – | – | – | – | – | – | – | MIC (8828) [20]: 0.86 ± 0.50 µM (≈ 1.39 µg/mL); MBIC (8919) ([4]; clinical isolate 8919, 24 h): 0.49 ± 0.26 µM; MBIC (9400) ([5]; clinical isolate 9400, 24 h): 2.28 ± 1.81 µM; CC50 at 72 h [1]: > 100 µM; MIC (DSM20566) (S. pneumoniae DSM20566 [21]): 1.94 ± 0.91 µM (≈ 3.14 µg/mL); MIC (DSM14378) (S. pneumoniae DSM14378 [22]): 0.54 ± 0.18 µM (≈ 0.875 µg/mL); MBIC (6937) ([7]; clinical isolate 6937, 24 h): 1.66 ± 1.21 µM; MIC (6937) [23]: 0.48 ± 0.18 µM (≈ 0.778 µg/mL); MIC (D39) (S. pneumoniae D39 [24]): 2.80 ± 0.11 µM (≈ 4.54 µg/mL); MBIC (DSM20566) (S. pneumoniae DSM20566 [11]; DSM20566, 24 h): 1.92 ± 1.07 µM; MBIC (D39) (S. pneumoniae D39 [12]; D39, 24 h): 6.10 ± 0.79 µM; MBIC (DSM14378) (S. pneumoniae DSM14378 [13]; DSM14378, 24 h): 1.99 ± 1.38 µM; MIC (8919) [25]: 0.31 ± 0.08 µM (≈ 0.502 µg/mL); CC50 at 72 h [2]: > 100 µM; MIC (9400) [26]: 0.96 ± 0.56 µM (≈ 1.56 µg/mL); MBIC (8828) ([19]; clinical isolate 8828, 24 h): 0.48 ± 0.21 µM |
